Measured values taken from patent publication US20260207654A1, “HEPARAN SULFATE AND ITS MIMETICS AS CHEMOKINE INHIBITORS” (INDIAN INSTITUTE OF SCIENCE EDUCATION AND RESEARCH, priority 2021, published 2026).

What was measured:
[1] = molecular target: T1, CXCL10 (Homo sapiens, UniProt P02778); assay: Chemokine glycan microarray binding assay; conditions: maximum RFU set as 100% binding, average across 2 glycan concentrations and 3 chemokine dilutions (n=6)
T1 sequence (P02778 22-98): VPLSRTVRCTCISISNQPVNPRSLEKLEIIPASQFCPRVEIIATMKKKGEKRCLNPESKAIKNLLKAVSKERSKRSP
Outline: (§1)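 Epoxy-slide glycan array; block: PBS pH 7.3 + 1% ovalbumin, 1 h RT. Chemokine, 3 serial dilutions, 2 h RT; biotin-secondary Ab 1 μg/mL → Cy3-SA; fluorescence scan. Max RFU per block = 100%, others ranked; mean rank ± SEM over dilutions.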

[2] = molecular target: T2, CCL5 (Homo sapiens, UniProt P13501); assay: Chemokine glycan microarray binding assay; conditions: maximum RFU set as 100% binding, average across 2 glycan concentrations and 3 chemokine dilutions (n=6)
T2 sequence (P13501 24-91): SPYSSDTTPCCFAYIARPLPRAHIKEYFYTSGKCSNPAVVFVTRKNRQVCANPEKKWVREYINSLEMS
Outline: as §1

[3] = molecular target: T3, CCL7 (Homo sapiens, UniProt P80098); assay: Chemokine glycan microarray binding assay; conditions: maximum RFU set as 100% binding, average across 2 glycan concentrations and 3 chemokine dilutions (n=6)
Outline: as §1

[4] = molecular target: T4, CXCL8 (Homo sapiens, UniProt P10145); assay: Chemokine glycan microarray binding assay; conditions: maximum RFU set as 100% binding, average across 2 glycan concentrations and 3 chemokine dilutions (n=6)
T4 sequence (P10145 21-99): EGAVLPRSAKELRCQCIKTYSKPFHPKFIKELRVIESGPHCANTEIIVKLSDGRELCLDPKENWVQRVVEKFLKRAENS
Outline: as §1

[5] = molecular target: T5, CCL28 (Homo sapiens, UniProt Q9NRJ3); assay: Chemokine glycan microarray binding assay; conditions: maximum RFU set as 100% binding, average across 2 glycan concentrations and 3 chemokine dilutions (n=6)
T5 sequence (Q9NRJ3 20-127): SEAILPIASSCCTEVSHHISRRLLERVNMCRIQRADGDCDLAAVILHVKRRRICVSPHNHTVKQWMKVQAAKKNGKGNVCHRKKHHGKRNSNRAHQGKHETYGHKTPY
Outline: as §1

[6] = molecular target: CCL13 (Homo sapiens, UniProt Q99616); assay: Chemokine glycan microarray binding assay; conditions: maximum RFU set as 100% binding, average across 2 glycan concentrations and 3 chemokine dilutions (n=6)
Outline: as §1

[7] = molecular target: CXCL12 (Homo sapiens, UniProt P48061); assay: Chemokine glycan microarray binding assay; conditions: maximum RFU set as 100% binding, average across 2 glycan concentrations and 3 chemokine dilutions (n=6)
Outline: as §1

[8] = molecular target: T6, CCL2 (Homo sapiens, UniProt P13500); assay: Chemokine glycan microarray binding assay; conditions: maximum RFU set as 100% binding, average across 2 glycan concentrations and 3 chemokine dilutions (n=6)
Outline: as §1

[9] = molecular target: T7, CCL21 (Homo sapiens, UniProt O00585); assay: Chemokine glycan microarray binding assay; conditions: maximum RFU set as 100% binding, average across 2 glycan concentrations and 3 chemokine dilutions (n=6)
T7 sequence (O00585 24-134): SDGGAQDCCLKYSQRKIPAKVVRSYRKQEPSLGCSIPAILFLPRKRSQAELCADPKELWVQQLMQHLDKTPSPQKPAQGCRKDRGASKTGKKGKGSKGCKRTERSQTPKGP
Outline: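 Ranking data come from glycan microarrays probed with chemokines at three dilutions and detected by Cy3 fluorescence. Per block, the strongest signal set 100% binding, and average rank with SEM was calculated for every glycan.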

[10] = molecular target: T1, CXCL10; assay: Surface Plasmon Resonance (SPR) binding kinetics; conditions: compound immobilized on CM5 chip, 25° C., 1:1 model
Experimental: (§2) FIG. 1: SPR analysis of chemokines binding profile for the compounds of present invention: SPR binding analysis of the interaction between the examples 12, 17, and 19, chemokines were reported, Concentrations of chemokines were 0.05-2 μM. A global fit according to a 1:1 binding model was applied (black curves).
(§3) Surface Plasmon Resonance (SPR) binding kinetics The compound of present invention (test compound, Example 12) was covalently immobilized on sensor chip via coupling reaction. At first, the dextran matrix on CM5 chip was activated with NHS (0.02 M) and EDC coupling reagent (0.2 M) at a flow rate of 5 μL min^−1 for 15 min before activating with 50 μL of test compound (0.5 mM) in HBS-EP buffer. In the negative control cell after EDC and NHS activation, 0.5 mM of ethanol amine solution was flowed. The positive RU response on test compound confirmed immobilization of the HS ligand on CM5 chips. Then, different chemokines at a flow rate of 50 μL/min and 25° C. in HBS-EP buffer without growth factor was then flowed over the sensor surface for 3 min to enable association/dissociation. Kinetic analysis was performed using the BIA evaluation software for T100. Association and dissociation phase data were globally fitted to a simple 1:1 interaction model.
(§4) Table 2: SPR analysis of kinetic rate constants and equilibrium affinities of compounds of present invention binding to chemokines
as §3, with “The” for “Surface Plasmon Resonance (SPR) binding kinetics The”, “12, 17 & 18)” for “12)”

[11] = molecular target: T2, CCL5; assay: Surface Plasmon Resonance (SPR) binding kinetics; conditions: compound immobilized on CM5 chip, 25° C., 1:1 model
Experimental: as §2, §3, §4
as §3, with “The” for “Surface Plasmon Resonance (SPR) binding kinetics The”, “12, 17 & 18)” for “12)”

[12] = molecular target: T3, CCL7; assay: Surface Plasmon Resonance (SPR) binding kinetics; conditions: compound immobilized on CM5 chip, 25° C., 1:1 model
Experimental: as §2, §3, §4
as §3, with “The” for “Surface Plasmon Resonance (SPR) binding kinetics The”, “12, 17 & 18)” for “12)”

[13] = molecular target: T4, CXCL8; assay: Surface Plasmon Resonance (SPR) binding kinetics; conditions: compound immobilized on CM5 chip, 25° C., 1:1 model
Experimental: as §2, §3, §4
as §3, with “The” for “Surface Plasmon Resonance (SPR) binding kinetics The”, “12, 17 & 18)” for “12)”

[14] = molecular target: T6, CCL2; assay: Surface Plasmon Resonance (SPR) binding kinetics; conditions: compound immobilized on CM5 chip, 25° C., 1:1 model
Experimental: as §2, §3, §4
as §3, with “The” for “Surface Plasmon Resonance (SPR) binding kinetics The”, “12, 17 & 18)” for “12)”

Sequence of CXCL12 (P48061 22-93, species assumed): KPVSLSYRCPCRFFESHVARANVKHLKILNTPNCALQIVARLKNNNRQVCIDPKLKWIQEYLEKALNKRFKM
T3 sequence (P80098 24-99, species assumed): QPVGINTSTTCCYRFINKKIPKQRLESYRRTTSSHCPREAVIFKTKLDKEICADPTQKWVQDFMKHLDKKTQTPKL
T6 sequence (P13500 24-99, species assumed): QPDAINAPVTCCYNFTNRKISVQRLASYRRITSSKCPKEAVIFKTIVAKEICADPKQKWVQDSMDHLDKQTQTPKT
Sequence of CCL13 (Q99616 17-98, species assumed): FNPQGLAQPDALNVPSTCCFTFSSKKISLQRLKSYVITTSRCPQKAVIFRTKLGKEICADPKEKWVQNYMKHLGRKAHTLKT

SMILES | mean rank binding to CXCL10 [1] [%] | mean rank binding to CCL5 [2] [%] | mean rank binding to CCL7 [3] [%] | mean rank binding to CXCL8 [4] [%] | mean rank binding to CCL28 [5] [%] | mean rank binding to CCL13 [6] [%] | mean rank binding to CXCL12 [7] [%] | mean rank binding to CCL2 [8] [%] | mean rank binding to CCL21 [9] [%] | Kd [10] [µM] | Koff [10] | Kon [10] | Koff [11] | Kon [11] | Kd [12] [µM] | Koff [12] | Kon [12] | Kd [13] [µM] | Koff [13] | Kon [13] | further results
NCCCO[C@@H]1O[C@@H](C(=O)O)[C@@H](O[C@H]2O[C@H](COS(=O)(=O)O)[C@@H](O[C@@H]3O[C@@H](C(=O)O)[C@@H](O[C@H]4O[C@H](COS(=O)(=O)O)[C@@H](O)[C@H](OS(=O)(=O)O)[C@H]4N)[C@H](O)[C@H]3O)[C@H](OS(=O)(=O)O)[C@H]2N)[C@H](O)[C@H]1O [Example 17, 3-Aminopropyl-O-[(2-amino-6-O-sulfonato-3-O-sulfonato-2-deoxy-α-D-glucopyranosyl)-(1→4)-O-(α-L-idopyranosyluronate)-(1→4)-O-(2-amino-6-O-sulfonato-3-O-sulfonato-2-deoxy-α-D-glucopyranosyl)]-(1→4)-O-α-L-idopyranosiduronate] | 96 | 82 | 89 | 94 | 54 | 69 | 80 | 95 | 73 | 11 ± 0.37 | 1.69 ± 0.33 × 10^−1 S^−1 | 1.53 ± 0.26 × 10^4 M^−1S^−1 | 2.98 ± 0.31 × 10^−1 S^−1 | 4.37 ± 0.31 × 10^4 M^−1S^−1 | 11.3 ± 0.18 | 2.86 ± 0.21 × 10^−1 S^−1 | 2.53 ± 0.15 × 10^4 M^−1S^−1 | 11.7 ± 0.17 | 2.18 ± 0.28 × 10^−1 S^−1 | 1.87 ± 0.22 × 10^4 M^−1S^−1 | Kd [11]: 6.81 ± 0.33 µM; Koff [14]: 2.11 ± 0.34 × 10^−1 S^−1; Kon [14]: 11.17 ± 0.32 × 10^4 M^−1S^−1
NCCCO[C@@H]1OC(C(=O)O)[C@@H](O[C@H]2OC(COS(=O)(=O)O)[C@@H](O[C@@H]3OC(C(=O)O)[C@@H](O[C@H]4OC(COS(=O)(=O)O)[C@@H](O)C(O)C4N)C(O)C3OS(=O)(=O)O)C(O)C2N)C(O)C1OS(=O)(=O)O (stereo partly drawn) [Example 19, 3-Aminopropyl-O-[(2-amino-6-O-sulfonato-2-deoxy-α-D-glucopyranosyl)-(1→4)-O-(2-O-sulfonato-α-L-idopyranosyluronate)-(1→4)-O-(2-amino-6-O-sulfonato-2-deoxy-α-D-glucopyranosyl)]-(1→4)-O-2-O-sulfonato-α-L-idopyranosiduronate] | 89 | 95 | 91 | 79 | 79 | 74 | 79 | 80 | 66 | 10.7 ± 0.37 | 2.24 ± 0.35 × 10^−1 S^−1 | 2.07 ± 0.26 × 10^4 M^−1S^−1 | 2.14 ± 0.48 × 10^−1 S^−1 | 9.15 ± 0.34 × 10^4 M^−1S^−1 | 11.5 ± 0.17 | 2.25 ± 0.29 × 10^−1 S^−1 | 1.96 ± 0.22 × 10^4 M^−1S^−1 | 15.9 ± 0.23 | 1.96 ± 0.29 × 10^−1 S^−1 | 1.23 ± 0.17 × 10^4 M^−1S^−1 | Kd [14]: 9.82 ± 0.18 µM; Koff [14]: 2.03 ± 0.17 × 10^−1 S^−1; Kon [14]: 2.07 ± 0.13 × 10^4 M^−1S^−1
CC(=O)N[C@H]1[C@@H](O[C@H]2[C@H](O)[C@@H](O)[C@H](OCCCN)O[C@H]2C(=O)O)O[C@H](COP(=O)(O)O)[C@@H](O[C@@H]2O[C@@H](C(=O)O)[C@@H](O[C@H]3O[C@H](COP(=O)(O)O)[C@@H](O)[C@H](O)[C@H]3NC(C)=O)[C@H](O)[C@H]2O)[C@@H]1O [Example 26] | 48 | 5 | 40 | 10 | 39 | 70 | 75 | 1 | 81 | – | – | – | – | – | – | – | – | – | – | – | –
NCCOCCO[C@@H]1OC(C(=O)O)[C@@H](O)C(O)C1O (stereo partly drawn) [Example 1, Ethaoxy-2-aminoethoxyl-O-α-L-idopyranoside Uronic Acid] | 47 | 2 | 30 | 17 | 46 | 74 | 62 | 4 | 52 | – | – | – | – | – | – | – | – | – | – | – | –
